Results reported in PubChem BioAssay (NCI).
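Following 48 hours of exposure in 96-well plates, responses at five concentrations were used to interpolate endpoints linearly. At the GI50, growth is halved. TGI: concentration producing complete growth inhibition.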

Experiments:
Assay in all cases: NCI anticancer screen, dose series, 48 h
RXF 393 renal = system: RXF 393 renal
HCT-15 colon = system: HCT-15 colon
SK-OV-3 ovarian = system: SK-OV-3 ovarian
SNB-19 CNS = system: SNB-19 CNS
SF-539 CNS = system: SF-539 CNS
MOLT-4 leukemia = system: MOLT-4 leukemia
CCRF-CEM leukemia = system: CCRF-CEM leukemia
UACC-62 melanoma = system: UACC-62 melanoma
SR leukemia = system: SR leukemia
UO-31 renal = system: UO-31 renal
OVCAR-4 ovarian = system: OVCAR-4 ovarian
SK-MEL-5 melanoma = system: SK-MEL-5 melanoma
A549 NSCLC = system: A549 NSCLC
SNB-75 CNS = system: SNB-75 CNS
NCI-H226 lung = system: NCI-H226 lung
OVCAR-3 ovarian = system: OVCAR-3 ovarian
DU-145 prostate = system: DU-145 prostate
HL-60(TB) leukemia = system: HL-60(TB) leukemia
PC-3 prostate = system: PC-3 prostate
IGROV1 ovarian = system: IGROV1 ovarian
SF-295 CNS = system: SF-295 CNS
HT29 colon = system: HT29 colon
MDA-MB-435 = system: MDA-MB-435
COLO 205 colon = system: COLO 205 colon
TK-10 renal = system: TK-10 renal
U251 CNS = system: U251 CNS
HS 578T breast = system: HS 578T breast
MALME-3M melanoma = system: MALME-3M melanoma
K-562 leukemia = system: K-562 leukemia
NCI-H460 lung = system: NCI-H460 lung
HOP-92 NSCLC = system: HOP-92 NSCLC
HOP-62 NSCLC = system: HOP-62 NSCLC
MCF7 breast = system: MCF7 breast
786-0 renal = system: 786-0 renal
OVCAR-5 ovarian = system: OVCAR-5 ovarian
HCT-116 colon = system: HCT-116 colon
SW-620 colon = system: SW-620 colon
NCI/ADR-RES ovarian = system: NCI/ADR-RES ovarian
SN12C renal = system: SN12C renal
KM12 colon = system: KM12 colon
UACC-257 melanoma = system: UACC-257 melanoma
MDA-MB-231 breast = system: MDA-MB-231 breast
NCI-H522 lung = system: NCI-H522 lung
OVCAR-8 ovarian = system: OVCAR-8 ovarian
LOX IMVI melanoma = system: LOX IMVI melanoma
EKVX NSCLC = system: EKVX NSCLC
RPMI-8226 leukemia = system: RPMI-8226 leukemia
SF-268 CNS = system: SF-268 CNS
T-47D breast = system: T-47D breast
SK-MEL-28 melanoma = system: SK-MEL-28 melanoma
BT-549 breast = system: BT-549 breast
SK-MEL-2 melanoma = system: SK-MEL-2 melanoma
HCC-2998 colon = system: HCC-2998 colon
CAKI-1 renal = system: CAKI-1 renal
A498 renal = system: A498 renal
ACHN renal = system: ACHN renal
M14 melanoma = system: M14 melanoma

CS(=O)(=O)c1nccc(-c2c(-c3ccc(F)c(OCCc4ccccc4)c3)nc3sccn23)n1
GI50 (RXF 393 renal): 14.4 µM
TGI (RXF 393 renal): 27.6 µM
GI50 (HCT-15 colon): 16.2 µM
TGI (HCT-15 colon): 32.2 µM
GI50 (SK-OV-3 ovarian): 19.9 µM
TGI (SK-OV-3 ovarian): 45.2 µM
GI50 (SNB-19 CNS): 16.2 µM
TGI (SNB-19 CNS): 31.6 µM
GI50 (SF-539 CNS): 16.3 µM
TGI (SF-539 CNS): 30.3 µM
GI50 (MOLT-4 leukemia): 17.5 µM
TGI (MOLT-4 leukemia): 39.7 µM
GI50 (CCRF-CEM leukemia): 19.1 µM
TGI (CCRF-CEM leukemia): 45.6 µM
GI50 (UACC-62 melanoma): 17.4 µM
TGI (UACC-62 melanoma): 36.7 µM
GI50 (SR leukemia): 15.6 µM
TGI (SR leukemia): 40.6 µM
GI50 (UO-31 renal): 14.1 µM
TGI (UO-31 renal): 27.1 µM
GI50 (OVCAR-4 ovarian): 15.4 µM
TGI (OVCAR-4 ovarian): 29 µM
GI50 (SK-MEL-5 melanoma): 17.2 µM
TGI (SK-MEL-5 melanoma): 31.8 µM
GI50 (A549 NSCLC): 17.1 µM
TGI (A549 NSCLC): 33.5 µM
GI50 (SNB-75 CNS): 11.8 µM
TGI (SNB-75 CNS): 24 µM
GI50 (NCI-H226 lung): 14.1 µM
TGI (NCI-H226 lung): 27.8 µM
GI50 (OVCAR-3 ovarian): 15.4 µM
TGI (OVCAR-3 ovarian): 29 µM
GI50 (DU-145 prostate): 4.3 µM
TGI (DU-145 prostate): 14.8 µM
GI50 (HL-60(TB) leukemia): 5.17 µM
TGI (HL-60(TB) leukemia): 22.2 µM
GI50 (PC-3 prostate): 17.1 µM
TGI (PC-3 prostate): 35.6 µM
GI50 (IGROV1 ovarian): 15.4 µM
TGI (IGROV1 ovarian): 33.5 µM
GI50 (SF-295 CNS): 18.5 µM
TGI (SF-295 CNS): 33.3 µM
GI50 (HT29 colon): 16.7 µM
TGI (HT29 colon): 33.8 µM
GI50 (MDA-MB-435): 16.7 µM
TGI (MDA-MB-435): 31 µM
GI50 (COLO 205 colon): 19.1 µM
TGI (COLO 205 colon): 37.7 µM
GI50 (TK-10 renal): 15.4 µM
TGI (TK-10 renal): 29.7 µM
GI50 (U251 CNS): 16.6 µM
TGI (U251 CNS): 30.2 µM
GI50 (HS 578T breast): 17.2 µM
TGI (HS 578T breast): 42.9 µM
GI50 (MALME-3M melanoma): 18.2 µM
TGI (MALME-3M melanoma): 33.1 µM
GI50 (K-562 leukemia): 20.4 µM
TGI (K-562 leukemia): 68.3 µM
GI50 (NCI-H460 lung): 14 µM
TGI (NCI-H460 lung): 30 µM
GI50 (HOP-92 NSCLC): 8.62 µM
TGI (HOP-92 NSCLC): 22.1 µM
GI50 (HOP-62 NSCLC): 17 µM
TGI (HOP-62 NSCLC): 32.9 µM
GI50 (MCF7 breast): 4.29 µM
TGI (MCF7 breast): 18.7 µM
GI50 (786-0 renal): 16.5 µM
TGI (786-0 renal): 30.8 µM
GI50 (OVCAR-5 ovarian): 19.2 µM
TGI (OVCAR-5 ovarian): 44.8 µM
GI50 (HCT-116 colon): 16.3 µM
TGI (HCT-116 colon): 29.8 µM
GI50 (SW-620 colon): 18.4 µM
TGI (SW-620 colon): 35.8 µM
GI50 (NCI/ADR-RES ovarian): 16.8 µM
TGI (NCI/ADR-RES ovarian): 34.3 µM
GI50 (SN12C renal): 15.9 µM
TGI (SN12C renal): 34.4 µM
GI50 (KM12 colon): 17.3 µM
TGI (KM12 colon): 32.6 µM
GI50 (UACC-257 melanoma): 15 µM
TGI (UACC-257 melanoma): 29.6 µM
GI50 (MDA-MB-231 breast): 17.6 µM
TGI (MDA-MB-231 breast): 34.4 µM
GI50 (NCI-H522 lung): 13.5 µM
TGI (NCI-H522 lung): 30.7 µM
GI50 (OVCAR-8 ovarian): 16.7 µM
TGI (OVCAR-8 ovarian): 33.2 µM
GI50 (LOX IMVI melanoma): 14.9 µM
TGI (LOX IMVI melanoma): 31.8 µM
GI50 (EKVX NSCLC): 15.8 µM
TGI (EKVX NSCLC): 29.2 µM
GI50 (RPMI-8226 leukemia): 20.5 µM
TGI (RPMI-8226 leukemia): 55 µM
GI50 (SF-268 CNS): 16.4 µM
TGI (SF-268 CNS): 33.1 µM
GI50 (T-47D breast): 10.3 µM
TGI (T-47D breast): 25.7 µM
GI50 (SK-MEL-28 melanoma): 15.2 µM
TGI (SK-MEL-28 melanoma): 28.9 µM
GI50 (BT-549 breast): 15.6 µM
TGI (BT-549 breast): 30.1 µM
GI50 (SK-MEL-2 melanoma): 15.8 µM
TGI (SK-MEL-2 melanoma): 30.5 µM
GI50 (HCC-2998 colon): 15.4 µM
TGI (HCC-2998 colon): 30.2 µM
GI50 (CAKI-1 renal): 15.2 µM
TGI (CAKI-1 renal): 28.5 µM
GI50 (A498 renal): 11.8 µM
TGI (A498 renal): 24.3 µM
GI50 (ACHN renal): 15.4 µM
TGI (ACHN renal): 28.7 µM
GI50 (M14 melanoma): 17.7 µM
TGI (M14 melanoma): 32.1 µM
